Assay results published in paper PMC4510645, “Discovery of intramolecular trans-sialidases in human gut microbiota suggests novel mechanisms of mucosal adaptation” (Nature Communications, 2015).
Entries after “also recorded” stand apart in the source; their conditions may differ.

Tests used:
[1] = target: T1, RgNanH (Mediterraneibacter gnavus (Ruminococcus gnavus), UniProt A7B557); assay: Inhibition of RgNanH activity against 4MU-Neu5Ac by neuraminidase inhibitors; type: biochemical, Ruminococcus gnavus ATCC 29149; conditions: 4MU-Neu5Ac 0.51 mM, 1 nM enzyme; Neu5Ac 0-0.3 mM, Lac 0-1.5 mM; pH 6.5, 37 °C
T1 sequence (A7B557 26-723): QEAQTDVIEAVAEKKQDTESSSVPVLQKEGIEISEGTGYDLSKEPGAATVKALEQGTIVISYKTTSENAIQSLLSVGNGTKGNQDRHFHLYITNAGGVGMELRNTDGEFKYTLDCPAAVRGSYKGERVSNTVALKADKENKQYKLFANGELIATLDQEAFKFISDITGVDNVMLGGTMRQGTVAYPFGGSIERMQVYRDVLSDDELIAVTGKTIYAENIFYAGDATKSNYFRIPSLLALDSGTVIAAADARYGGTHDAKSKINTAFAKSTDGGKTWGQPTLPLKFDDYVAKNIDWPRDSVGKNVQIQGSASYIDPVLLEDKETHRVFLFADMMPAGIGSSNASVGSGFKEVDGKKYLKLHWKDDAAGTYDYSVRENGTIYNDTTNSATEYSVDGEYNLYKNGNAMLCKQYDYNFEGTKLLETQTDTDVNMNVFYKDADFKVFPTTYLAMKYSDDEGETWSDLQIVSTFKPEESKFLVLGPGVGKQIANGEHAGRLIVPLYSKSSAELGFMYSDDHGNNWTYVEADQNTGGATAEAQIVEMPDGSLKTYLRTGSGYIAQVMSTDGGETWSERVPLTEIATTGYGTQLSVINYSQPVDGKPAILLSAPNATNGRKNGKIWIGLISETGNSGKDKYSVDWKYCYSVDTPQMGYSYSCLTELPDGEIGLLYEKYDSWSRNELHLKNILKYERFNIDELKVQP
Protocol: Figure 1 Kinetic analysis of the hydrolysis of sialylated substrates by RgNanH in presence or absence of inhibitors. Substrate (a) 4MU-Neu5Ac or (b) PNP-Neu5Ac was incubated with RgNanH ([…] and 0.43 nM, respectively) at 37 °C, pH 6.5 and the release of product measured using a plate reader. (c) Inhibition of RgNanH (1.00 nM) incubated with 4MU-Neu5Ac (0.51 mM) by zanamivir (●), Neu5Ac2en (▪), siastatin B (▴) and OC (♦), the rates are normalized to a % of the uninhibited rate. [I] is the inhibitor concentration. (d) 3′SL was incubated with RgNanH (2.25 nM) and the release of product measured by HPAEC-PAD. Experiments were done at least in duplicate (usually triplicate) and the error bars show the s.e.m.
The purified enzymes were incubated with the substrate in buffer made from 20 mM Na2HPO4 and 20 mM NaH2PO4 adjusted to pH 6.5 containing 1 mg ml^−1 BSA at 37 °C unless otherwise stated. For 4MU-Neu5Ac, the progression of the reaction was monitored by the release of the MU using a 96-well plate reader (BMG Labtech, Ortenberg, Germany) using fluorescence with an excitation at 340 nm and an emission at 420 nm. For determining the optimal temperature, the assay was carried out in 20 mM PBS at pH 7.4. For determining the optimal pH, the assay was carried out at 37 °C using buffer made from 20 mM Na2HPO4 and 20 mM NaH2PO4 in varying proportions to obtain the desired pH. PNP release from PNP-Neu5Ac was monitored in a similar way measuring absorbance at 405 nm every 60 s. For 3′SL, the reaction was monitored by HPAEC-PAD. An aliquot of the reaction was removed from the main reaction volume at the reaction stopped by boiling for 20 min, the enzyme was then removed by centrifugation at 17,000g for 10 min and filtration with a 0.2-μm filter (Millipore, Billerica, USA). The sugars were separated by HPAEC with an isocratic gradient of 100 mM NaOH and 100 mM NaAC at 1 ml min^−1 on a CarboPac PA1 protected with a guard column and detected using PAD on a Dionex ICS5000 system (Thermo Scientific, Hemel Hempstead, UK). The column was cleaned with 10 ml of 500 mM NaOH and 500 mM NaAc, and the column was re-equilibrated with 100 mM NaOH and 100 mM NaAc. An internal standard of fucose was used to quantify the results. […]

[2] = test system: R. gnavus ATCC 29149; parameters: method as in PMID 24204617; conditions: cited from earlier work; for ability of the bacteria to grow on the substrate: R. gnavus ATCC 29149
[3] = Spontaneous interconversion of 2,7-anhydro-Neu5Ac and Neu5Ac by 1H NMR; type: physicochemical; conditions: up to 24 h at 37 °C
Protocol: The products of the reaction were thus further monitored by ^1H nuclear magnetic resonance (NMR). […] (Fig. 3). These peaks are characteristic of 2,7-anhydro-α-N-acetylneuraminic acid (2,7-anhydro-Neu5Ac) and arise from the protons in positions 6 and 7 (Fig. 3a). Peaks corresponding to 2,7-anhydro-Neu5Ac were observed when RgNanH was incubated in presence of 4MU-Neu5Ac (Fig. 3a) or 3′SL (Fig. 3b). […] The signals of 2,7-anhydro-Neu5Ac and their chemical shifts are shown in Supplementary Table 1. This product was absent in control experiments using A. muciniphila sialidases (AkmNan0625 and AkmNan1835) or in absence of enzyme, confirming the specificity of the enzymatic reaction (Supplementary Fig. 5).
Extracts (400 μl) were mixed with 200 μl of D2O and 20 μl of a solution of D2O containing 1 mM of TSP (sodium 3-(trimethylsilyl)-propionate-d4). Samples (500 μl) were transferred into a 5-mm NMR tube for spectral acquisition. The ^1H NMR spectra were recorded at 600 MHz on a Bruker Avance spectrometer (Bruker BioSpin GmbH, Rheinstetten, Germany) running Topspin 2.0 software, and were fitted with a cryoprobe and a 60-slot autosampler. Each ^1H NMR spectrum was acquired with 128 scans, a spectral width of 8,012.8 Hz, an acquisition time of 2.04 s and a relaxation delay of 2.0 s. […]

[4] = target: T1, RgNanH; assay: Hydrolysis of sialic acid from glycoproteins monitored by 1H NMR; type: biochemical, Ruminococcus gnavus ATCC 29149; conditions: glycoprotein 1 mg ml^−1, 1 nM enzyme, 37 °C, pH 6.5, overnight
Protocol: The ability of RgNanH to hydrolyse sialic acid from glycoproteins was investigated by incubation of the enzyme with human α-1-acid glycoprotein (AGP) and fetuin (Fet) both of which are known to contain α2-3 sialyl linkages, while asialo-Fet was also included as a control.
(§1) For specificity tests against sialylated oligosaccharides (1 mM) and glycoproteins (1 mg ml^−1), 1 nM of enzyme was incubated with the substrate at 37 °C, pH 6.5, overnight.
Extracts (400 μl) were mixed with 200 μl of D2O and 20 μl of a solution of D2O containing 1 mM of TSP (sodium 3-(trimethylsilyl)-propionate-d4). Samples (500 μl) were transferred into a 5-mm NMR tube for spectral acquisition. The ^1H NMR spectra were recorded at 600 MHz on a Bruker Avance spectrometer (Bruker BioSpin GmbH, Rheinstetten, Germany) running Topspin 2.0 software, and were fitted with a cryoprobe and a 60-slot autosampler. Each ^1H NMR spectrum was acquired with 128 scans, a spectral width of 8,012.8 Hz, an acquisition time of 2.04 s and a relaxation delay of 2.0 s. The ‘noesypr1d' presaturation sequence was used to suppress the residual water signal with a low-power selective irradiation at the water frequency during the recycle delay and a mixing time of 100 ms. Spectra were transformed with a 0.3-Hz line broadening, manually phased, baseline corrected and referenced by setting the TSP methyl signal to 0 p.p.m.

[5] = target: T1, RgNanH; assay: Specificity against sialyl-oligosaccharides, HPAEC-PAD; type: biochemical, Ruminococcus gnavus ATCC 29149; parameters: key to Activity RgNanH: +: Activity was defined as disappearance of the substrate peak and appearance of a lower-molecular weight peak, which could correspond to the desialylated substrate; conditions: 37 °C
Protocol: (§2) Figure 2 Specificity of RgNanH towards sialylated oligosaccharides. The enzymes were incubated with sialylated substrates at 37 °C, pH 6.5, overnight and the reaction products were analysed by HPAEC-PAD. Control reactions without enzyme were also performed. The injection peak is marked (inj). Glycerol (gly) was also present in AkmNan0625. (a) Standards (Lac, Neu5Ac, 3′SL and 6′SL), (b) 3′SL, (c) 6′SL and (d) 3'-α-sialyl-N-acetyllactosamine (3′SLacNAc). AkmNan1835 has a similar profile to […].
(§3) The purified enzymes were incubated with the substrate in buffer made from 20 mM Na2HPO4 and 20 mM NaH2PO4 adjusted to pH 6.5 containing 1 mg ml^−1 BSA at 37 °C unless otherwise stated. For 4MU-Neu5Ac, the progression of the reaction was monitored by the release of the MU using a 96-well plate reader (BMG Labtech, Ortenberg, Germany) using fluorescence with an excitation at 340 nm and an emission at 420 nm. For determining the optimal temperature, the assay was carried out in 20 mM PBS at pH 7.4. For determining the optimal pH, the assay was carried out at 37 °C using buffer made from 20 mM Na2HPO4 and 20 mM NaH2PO4 in varying proportions to obtain the desired pH. PNP release from PNP-Neu5Ac was monitored in a similar way measuring absorbance at 405 nm every 60 s. For 3′SL, the reaction was monitored by HPAEC-PAD. An aliquot of the reaction was removed from the main reaction volume at the reaction stopped by boiling for 20 min, the enzyme was then removed by centrifugation at 17,000g for 10 min and filtration with a 0.2-μm filter (Millipore, Billerica, USA). The sugars were separated by HPAEC with an isocratic gradient of 100 mM NaOH and 100 mM NaAC at 1 ml min^−1 on a CarboPac PA1 protected with a guard column and detected using PAD on a Dionex ICS5000 system (Thermo Scientific, Hemel Hempstead, UK). The column was cleaned with 10 ml of 500 mM NaOH and 500 mM NaAc, and the column was re-equilibrated with 100 mM NaOH and 100 mM NaAc. An internal standard of fucose was used to quantify the results.
as §1

[6] = target: T1, RgNanH; assay: Kinetic parameters of RgNanH with sialylated substrates; type: biochemical, Ruminococcus gnavus ATCC 29149; conditions: pH 6.5, 37 °C
Protocol: as §3
For 4MU-Neu5Ac and 3′SL, the rate of hydrolysis without enzyme was not significant, thus raw data were used. However, for pNP-Neu5Ac, the rate of hydrolysis without enzyme was significant, thus the rate with enzyme was corrected by the subtraction of the rate without enzyme at each concentration of substrate. For 3′SL, the rate of reaction was calculated by plotting the amount of substrate remaining over the course of >50 % of the reaction using the following equation[58]: […]
Where k is kcat/KM × enzyme concentration, t is time, [S0] and [St] are substrate concentrations at time 0 and t, respectively.
Kinetic data were obtained from at least duplicate (usually triplicate) experiments, and the kinetic parameters were calculated by fitting the initial raw data to the Michaelis–Menten equation using a nonlinear regression analysis programme (Prism 6, GraphPad, San Diego, USA), and error bars (s.e.m.) are shown.

[7] = test system: AkmNan0625 and AkmNan1835; assay: Specificity against sialyl-oligosaccharides, HPAEC-PAD (control sialidases); type: biochemical, Akkermansia muciniphila; parameters: key to Activity AkmNan0625 and AkmNan1835: +: Activity was defined as disappearance of the substrate peak and appearance of a lower-molecular weight peak, which could correspond to the desialylated substrate; conditions: 37 °C; for activity of AkmNan0625 and AkmNan1835 on substrate (in words): pH 6.5; for Activity AkmNan0625 and AkmNan1835: substrate 1 mM, 1 nM enzyme, pH 6.5, overnight
Protocol: as §2
All chemicals were obtained from Sigma (St Louis, USA) unless otherwise stated. The A. muciniphila sialidases, termed here AkmNan0625 and AkmNan1835, were obtained by His-Tag overexpression of their genes (Amuc_0625 and Amuc_1835, respectively)[56] in E. coli BL21(DE3) and subsequent purification to homogeneity by immobilized metal affinity chromatography as described below. The sialylated oligosaccharides and OC were obtained from Carbosynth (Berks, UK).
as §3, §1

## OC[C@H]1O[C@@H](O[C@H]2[C@H](O)[C@@H](O)C(O)O[C@@H]2CO)[C@H](O)[C@@H](O)[C@H]1O (mixture of isomers) [lactose]
[1]
  Inhibition of RgNanH: not inhibited
[2]
  ability of the bacteria to grow on the substrate: not

## CC(=O)N[C@H]1[C@H]2O[C@@](C(=O)O)(C[C@@H]1O)O[C@@H]2[C@H](O)CO [2,7-anhydro-Neu5Ac, 2,7-anhydro-α-N-acetylneuraminic acid]
[3]
  spontaneous conversion between 2,7-anhydro-Neu5Ac and Neu5Ac: no spontaneous conversion

## CC(=O)N[C@H]1[C@H]([C@H](O)[C@H](O)CO)OC(O)(C(=O)O)C[C@@H]1O (stereo partly drawn) [Neu5Ac, sialic acid]
[3]
  spontaneous conversion between 2,7-anhydro-Neu5Ac and Neu5Ac: no evidence of spontaneous conversion
[1]
  Inhibition of RgNanH: not inhibited
[2]
  ability of the bacteria to grow on the substrate: not
[2]; R. gnavus ATCC 29149 and E1
  growth on sole carbon source: could not grow

## AGP: human α-1-acid glycoprotein, known to contain α2-3 sialyl linkages
[4]
  activity of RgNanH against glycoprotein (2,7-anhydro-Neu5Ac peaks by 1H NMR): showed activity
[4]; listed as α-1-AGP
  activity of RgNanH against glycoprotein (2,7-anhydro-Neu5Ac peaks by 1H NMR): substrates

## Fet: fetuin, glycoprotein known to contain α2-3 sialyl linkages
[4]
  activity of RgNanH against glycoprotein (2,7-anhydro-Neu5Ac peaks by 1H NMR): showed activity; also recorded: substrates

## Neu5Ac-α-2-3-Gal-β-1-4-Glc [3′SL]
[5]; substrate 1 mM, 1 nM enzyme, pH 6.5, overnight
  Activity RgNanH: +
[6]; substrate inhibition, s.e.m.
  Ki: 760 ± 230 µM
[6]; substrate of RgNanH
  kcat: 0.4283 s⁻¹
[6]; substrate of RgNanH, s.e.m.
  KM: below detection limit
  Km: < 100 µM
  Vmax: 0.0566 ± 0.0057 µM/min
[7]
  activity of AkmNan0625 and AkmNan1835 on substrate (in words): active
  Activity AkmNan0625 and AkmNan1835: +
[2]
  ability of the bacteria to grow on the substrate: grow

## Neu5Ac-α-2-6-Gal-β1-4-Glc [6′SL]
[5]; pH 6.5
  enzymatic activity of RgNanH on substrate (in words): no enzymatic activity
[7]
  activity of AkmNan0625 and AkmNan1835 on substrate (in words): active
  Activity AkmNan0625 and AkmNan1835: +
[2]
  ability of the bacteria to grow on the substrate: not

## asialo-Fet: asialo-fetuin, included as a control
[4]
  activity of RgNanH against glycoprotein (2,7-anhydro-Neu5Ac peaks by 1H NMR): no change
